IC50 data for 21 molecules are collected here from patent US5686424A, “2-oxoethyl derivatives as immunosuppressants” (Miles Inc., priority 1995, dated 1997).

Molecules are shown by their SMILES.

One experiment concerns human T-cells. In words: Suppression of Human T-Cell Proliferation Assay (PHA-stimulated, [3H]-thymidine incorporation). In kind it is cell-based. Particulars: concentration inhibiting [3H]-thymidine incorporation of PHA-stimulated T-cells by 50%, 72 hours; TABLE 2; read-out: IC50. An outline of the steps:
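SRBC-rosette-purified human peripheral T-cells stimulated with PHA-M (40 μg/ml stock) and compound dilutions, in duplicate, for 72 h at 37° C. Proliferation measured by [3H]-thymidine incorporation during the final 6 h, read by liquid scintillation counting.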

Another experiment concerns NF-AT. In words: NF-AT Inhibition Assay Directed β-Galactosidase Expression in FGL-5 cells. In kind it is cell-based. Particulars: 50% inhibition of NF-AT directed β-galactosidase activity in FGL-5 cells stimulated with phorbol dibutyrate and ionomycin; TABLE 3. On the procedure: 3) NF-AT Assay Stimulation of T-cells leads to the appearance of several transcription factors, including one designated "NF-AT". These factors are involved in regulation of gene expression required for immunologic activation. Some of these transcription factors appear to have functions in a wide variety of cell types. By contrast, NF-AT is found primarily in T-cells and its role is restricted to early gene activation. […] Inhibition of NF-AT activity is measured using FGL-5 cells. FGL-5 is a cloned line of stably transfected Jurkat T-cells that contain two construct in which three tandem copies of the NF-AT DNA binding site direct transcription of both murine CD8 and the lacZ gene, encoding β-galactosidase ([…] et al., 1990, Genes & Development 4:1823). When these cells are stimulated with phorbol esters which activate protein kinase C and calcium ionophore to raise the intracellular calcium concentration, transcriptionally active NF-AT is produced. In T-cells, this normally leads to the expression of IL-2, T-cell growth factor. However, in FGL-5 cells NF-AT activation leads to the production of β-galactosidase which can be detected using an appropriate substrate. […] NF-AT Inhibition Assay Directed β-Galactosidase Expression This assay was performed essentially as described (Bierer et al., 1990, Proc. Natl. Acad. Sci. 87:9231). […] The assays were done with exponentially growing cells whose density was not greater than 0.5 million cells/ml. The cells were resuspended to 3 million cells/ml in medium and 0.1 ml was added to wells of a 96-well plate. The compounds of the present invention were dissolved in either ethanol or dimethylsulfoxide at 10 mM and […] of various dilutions in medium were added to cells in duplicate wells. Treatment controls consisted of duplicate wells containing 0.5 ml/well of either medium, ethanol or dimethylsulfoxide. The ethanol and dimethyl sulfoxide were at the same concentration as was used for the compounds. […] Phorbol dibutyrate (Sigma) and Ionomycin (Calbiochem) were dissolved at 50 μg/ml and 2 mM, respectively and stored at -70° C. […] For unstimulated cell controls, 0.5 ml/well of medium was added to duplicate wells. The plates were incubated overnight (16-18 hours) at 37° C. in a humidified atmosphere of 5% CO2 and air. β-galactosidase activity was measured as the fluorescence generated by the cleavage of 4-methyl umbelliferyl-β-D-galactoside (Sigma) at the β-galactoside bond. After overnight incubation, the cells were centrifuged at 500×g for 3 minutes in the 96-well plates and washed 3 times with PBS. […] The percent inhibition by each concentration of the compounds was calculated as: […]

The target of the next experiment is FKBP (Homo sapiens, UniProt P62942). As to the kind of experiment: PPIase Inhibition Assay. In kind it is biochemical. Conditions: concentration of inhibitor required for 50% inhibition of enzyme activity; FKBP, substrate Succinyl-Ala-Phe-Pro-Phe-para-nitroanilide; TABLE I. Put shortly:
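Chymotrypsin-coupled isomerization of Succinyl-Ala-Phe-Pro-Phe-para-nitroanilide by FKBP in ice-cold 25 mM HEPES pH 7.8, 100 mM NaCl, compound in DMSO. A390 followed 90 sec; first-order rate constants give % activity remaining after subtracting uncatalyzed rate; IC50 by linear regression of V-/V+ versus concentration.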

Chain of FKBP (P62942 whole entry): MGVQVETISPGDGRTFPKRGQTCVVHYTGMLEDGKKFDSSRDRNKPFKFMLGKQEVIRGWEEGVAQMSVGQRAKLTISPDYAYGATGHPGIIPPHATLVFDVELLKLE

With `CCCCCC1CCC(C(=O)CN2CCC[C@H]2C(=O)N[C@H](C(=O)NCc2ccccc2)[C@@H](C)CC)CC1` (stereo partly drawn) [Example 42, L-Isoleuclne, N-[1-(2-(4-Pentylcyclohexyl)-2-Oxoethyl)-L-Prolyl] Benzylamide], the 50% inhibitory concentration (IC50) – broadly, the concentration needed to halve the response being measured – was 7 µM in the experiment with human T-cells, 22 µM in the experiment with NF-AT and > 5 µM on FKBP.

Take `CC[C@H](C)[C@H](NC(=O)[C@@H]1CCCN1CC(=O)C1CCc2ccccc2C1)C(=O)NCc1ccccc1` (stereo partly drawn) [Example 43, L-Isoleuclne, N-[1-(2-(1,2,3,4-tetrahydro-Napththalen-2-yl)-2-Oxoethyl)-L-Prolyl] Benzylamide]: the IC50 is 16 µM in the experiment with human T-cells, 14 µM in the experiment with NF-AT and < 5 µM against FKBP.

For the molecule `CC[C@H](C)[C@H](NC(=O)[C@@H]1CCCN1CC(=O)C12CC3CC(CC1C3)C2)C(=O)NCc1ccccc1` [Example 45, L-Isoleucine, N-[1-(2-Oxo-2-Tricyclo[3.3.1.0 ^3,7]Non-3-yl-Ethyl)-L-Prolyl] Benzylamide], the values for the half-maximal inhibitory concentration (IC50) in the experiment with human T-cells, with NF-AT and on FKBP were 20 µM, > 33 µM and < 5 µM, respectively.

Turning to `CC[C@H](C)[C@H](NC(=O)[C@@H]1CCCN1CC(=O)CC12CC3CC(CC(C)(C3)C1)C2)C(=O)NCc1ccccc1` [Example 46, L-Isoleucine, N-[1-(2-Oxo-3-(3-Methyl-Adamantan-1-yl)-Propyl)-L-Prolyl] Benzylamide], the IC50 with human T-cells was 13 µM; in the experiment on NF-AT it was 15 µM; at FKBP, < 5 µM.

Regarding `O=C(CNC(=O)[C@@H]1CCCN1CC(=O)C12CC3CC(CC(C3)C1)C2)NCc1ccccc1` [Example 55, Glycine, N-[1-(2-Adamantan-1-yl-2-Oxoethyl)-L-Prolyl] Benzylamide], the values for the IC50 in the experiment with human T-cells, with NF-AT and against FKBP were 13 µM, 44 µM and 5.1 µM, respectively.

For `CC(C)[C@H](NC(=O)[C@@H]1CCCN1CC(=O)C12CC3CC(CC(C3)C1)C2)C(=O)NCc1ccccc1` [Example 56, L-Valine, N-[1-(2-Adamantan-1-yl-2-Oxoethyl)-L-Prolyl] Benzylamide], the IC50 in the experiment with human T-cells came to 8 µM; in the experiment with NF-AT, 73 µM; against FKBP it was 1.2 µM.

Regarding `CC(C)C[C@H](NC(=O)[C@@H]1CCCN1CC(=O)C12CC3CC(CC(C3)C1)C2)C(=O)NCc1ccccc1` [Example 57, L-Leucine, N-[1-(2-Adamantan-1-yl-2-Oxoethyl)-L-Prolyl] Benzylamide], the results for the IC50 with human T-cells, with NF-AT and on FKBP were 8 µM, > 100 µM and 0.22 µM, respectively.

Consider `O=C(NCc1ccccc1)[C@H](Cc1ccccc1)NC(=O)[C@@H]1CCCN1CC(=O)C12CC3CC(CC(C3)C1)C2` [Example 58, L-Phenylalanine, N-[1-(2-Adamantan-1-yl-2-Oxoethyl)-L-Prolyl] Benzylamide], for which the half-maximal inhibitory concentration (IC50) with human T-cells stood at 7 µM; in the experiment with NF-AT, 20 µM; against FKBP, 2.3 µM.

With `CCC[C@H](NC(=O)[C@@H]1CCCN1CC(=O)C12CC3CC(CC(C3)C1)C2)C(=O)NCc1ccccc1` [Example 59, L-Norvaline, N-[1-(2-Adamantan-1-yl-2-Oxoethyl)-L-Prolyl] Benzylamide], the IC50 is 10 µM with human T-cells, > 100 µM in the experiment with NF-AT and 0.71 µM against FKBP.

With `CCCC[C@H](NC(=O)[C@@H]1CCCN1CC(=O)C12CC3CC(CC(C3)C1)C2)C(=O)NCc1ccccc1` [Example 60, L-Norleucine, N-[1-(2-Adamantan-1-yl-2-Oxoethyl)-L-Prolyl] Benzylamide], the IC50 in the experiment on human T-cells stood at 16 µM; with NF-AT, 18 µM; on FKBP, 0.4 µM.

As to `NC(=O)C[C@H](NC(=O)[C@@H]1CCCN1CC(=O)C12CC3CC(CC(C3)C1)C2)C(=O)NCc1ccccc1` [Example 61, L-Asparagine, N-[1-(2-Adamantan-1-yl-2-Oxoethyl)-L-Prolyl] Benzylamide], the IC50 was 17 µM in the experiment with human T-cells, > 100 µM in the experiment on NF-AT and < 5 µM against FKBP.

On to `O=C(NCc1ccccc1)[C@H](CC1CCCCC1)NC(=O)[C@@H]1CCCN1CC(=O)C12CC3CC(CC(C3)C1)C2` [Example 64, L-Cyclohexylalanine, N-[1-(2-Adamantan-1-yl-2-Oxoethyl)-L-Prolyl] Benzylamide], for which the IC50 is 7 µM in the experiment on human T-cells, 16 µM in the experiment on NF-AT and < 5 µM on FKBP.

Regarding `CC[C@H](C)[C@H](NC(=O)[C@@H]1CCCN1CC(=O)C12CC3CC(CC(C3)C1)C2)C(=O)N[C@@H](C)c1ccccc1` [Example 65, L-Isoleucine, N-[1-(2-Adamantan-1-yl-2-Oxoethyl)-L-Prolyl] alpha-(S)-methylbenzylamide], the IC50 in the experiment on human T-cells amounted to 8 µM; in the experiment with NF-AT, 17 µM; on FKBP, 0.1 µM.

For `CC[C@H](C)[C@H](NC(=O)[C@@H]1CCCN1CC(=O)C12CC3CC(CC(C3)C1)C2)C(=O)NCc1ccncc1` [Example 67, L-Isoleucine, N-[1-(2-Adamantan-1-yl-2-Oxoethyl)-L-Prolyl] Pyridin-4-ylmethylamide], the IC50 is 19 µM with human T-cells, > 100 µM in the experiment with NF-AT and 0.71 µM against FKBP.

On to `CC[C@H](C)[C@H](NC(=O)[C@@H]1CCCN1CC(=O)C12CC3CC(CC(C3)C1)C2)C(=O)NCc1ccccn1` [Example 68, L-Isoleucine, N-[1-(2-Adamantan-1-yl-2-Oxoethyl)-L-Prolyl] Pyridin-2-ylmethylamide], for which the IC50 in the experiment with human T-cells amounted to 16 µM; in the experiment with NF-AT, 60 µM; against FKBP, 0.4 µM.

With `CC[C@H](C)[C@H](NC(=O)[C@@H]1CCCN1CC(=O)C12CC3CC(CC(C3)C1)C2)C(=O)NCc1ccc(OC)cc1` [Example 69, L-Isoleucine, N-[1-(2-Adamantan-1-yl-2-Oxoethyl)-L-Prolyl] 4-methoxybenzylamide], the IC50 with human T-cells amounted to 8 µM; with NF-AT, 16 µM; against FKBP, 0.2 µM.

As for `CC[C@H](C)[C@H](NC(=O)[C@@H]1CCCN1CC(=O)C12CC3CC(CC(C3)C1)C2)C(=O)NCc1ccccc1OC` [Example 70, L-Isoleucine, N-[1-(2-Adamantan-1-yl-2-Oxoethyl)-L-Prolyl] 2-methoxybenzylamide], the IC50 with human T-cells worked out at 7 µM; in the experiment with NF-AT it was 16 µM; on FKBP, 0.64 µM.

In the case of `CC[C@H](C)[C@H](NC(=O)[C@@H]1CCCN1CC(=O)OCC=C(C)CCC=C(C)CCC=C(C)C)C(=O)NCc1ccccc1` [Example 83, L-Isoleucine, N-[1-(2-[1-(3,7,11-Trimethyldodeca-2,6,10-trien-1-ol)]-2-Oxoethyl)-L-Proline] Benzylamide], the IC50 with human T-cells is 7 µM; in the experiment on NF-AT, 12 µM; against FKBP, > 5 µM.

Consider `CC[C@H](C)[C@H](NC(=O)[C@@H]1CCCN1CC(=O)OCC=Cc1ccccc1)C(=O)NCc1ccccc1` [Example 84, L-Isoleucine, N-[1-(2-(3-Phenyl-2-Propen-1-Oxy)-2-Oxoethyl)-L-Prolyl] Benzylamide], for which the results for the IC50 in the experiment on human T-cells, with NF-AT and at FKBP were > 100 µM, > 100 µM and 3.2 µM, respectively.

For `CC[C@H](C)[C@H](NC(=O)[C@@H]1CCCN1CC(=O)OCC=C(C)c1ccccc1)C(=O)NCc1ccccc1` [Example 85, L-Isoleucine, N-[1-(2-(3-Phenyl-3-Methyl-2-Propen-1-Oxy)-2-Oxoethyl)-L-Prolyl] Benzylamide], the IC50 in the experiment on human T-cells was 22 µM; in the experiment with NF-AT, 13 µM; on FKBP, < 5 µM.

As for `CCC(OC(=O)CN1CCC[C@H]1C(=O)N[C@H](C(=O)NCc1ccccc1)[C@@H](C)CC)c1ccccc1` (stereo partly drawn) [Example 86, L-Isoleucine, N-[1-(2-(1-Phenylpropoxy)-2-Oxoethyl)-L-Prolyl] Benzylamide], the values for the IC50 in the experiment with human T-cells, with NF-AT and against FKBP were 22 µM, 13 µM and 0.88 µM, respectively.
